Experimental data taken from ChEMBL document CHEMBL4346705, “(±)-trans-Dihydronarciclasine and (±)-trans-dihydrolycoricidine analogues modified in their ring A: Evaluation of their anticancer activity and a SAR study” (2019).

Assays:
Assay type in all cases: functional
BT-549 = test: Antiproliferative activity against human BT549 cells assessed as cell viability at 10^-5 M incubated for 48 hrs by sulforhodamine B assay relative to control; settings: BT-549, 48 h, read-out: Activity
EKVX = test: Antiproliferative activity against human EKVX cells assessed as cell viability at 10^-5 M incubated for 48 hrs by sulforhodamine B assay relative to control; settings: read-out: Activity
NCI-H460 = test: Antiproliferative activity against human NCI-H460 cells assessed as cell viability at 10^-5 M incubated for 48 hrs by sulforhodamine B assay relative to control; settings: NCI-H460, 48 h, read-out: Activity
NCI-H226 = test: Antiproliferative activity against human NCI-H226 cells assessed as cell viability at 10^-5 M incubated for 48 hrs by sulforhodamine B assay relative to control; settings: NCI-H226, 48 h, read-out: Activity
SNB-19 = test: Antiproliferative activity against human SNB19 cells assessed as cell viability at 10^-5 M incubated for 48 hrs by sulforhodamine B assay relative to control; settings: SNB-19, 48 h, read-out: Activity
HOP-62 = test: Antiproliferative activity against human HOP62 cells assessed as cell viability at 10^-5 M incubated for 48 hrs by sulforhodamine B assay relative to control; settings: HOP-62, 48 h, read-out: Activity
MDA-MB-231 = test: Antiproliferative activity against human MDA-MB-231 cells assessed as cell viability at 10^-5 M incubated for 48 hrs by sulforhodamine B assay relative to control; settings: MDA-MB-231, 48 h, read-out: Activity
RPMI-8226 = test: Antiproliferative activity against human RPMI8226 cells assessed as cell viability at 10^-5 M incubated for 48 hrs by sulforhodamine B assay relative to control; settings: RPMI-8226, 48 h, read-out: Activity
HCT-15 = test: Antiproliferative activity against human HCT15 cells assessed as cell viability at 10^-5 M incubated for 48 hrs by sulforhodamine B assay relative to control; settings: HCT-15, 48 h, read-out: Activity
CCRF-CEM = test: Antiproliferative activity against human CCRF-CEM cells assessed as cell viability at 10^-5 M incubated for 48 hrs by sulforhodamine B assay relative to control; settings: read-out: Activity
U-251 = test: Antiproliferative activity against human U251 cells assessed as cell viability at 10^-5 M incubated for 48 hrs by sulforhodamine B assay relative to control; settings: U-251, 48 h, read-out: Activity
MDA-MB-468 [1] = test: Cytotoxicity against human MDA-MB-468 cells assessed as growth inhibition after 48 hrs by sulforhodamine B assay; settings: MDA-MB-468, 48 h; for CC50: read-out: LC50 (the source's name)
CAKI-1 = test: Cytotoxicity against human Caki1 cells assessed as growth inhibition after 48 hrs by sulforhodamine B assay; settings: CAKI-1, 48 h; for CC50: read-out: LC50 (the source's name)
A549 = test: Antiproliferative activity against human A549 cells assessed as cell viability at 10^-5 M incubated for 48 hrs by sulforhodamine B assay relative to control; settings: A549, 48 h, read-out: Activity
HOP-92 = test: Cytotoxicity against human HOP92 cells assessed as growth inhibition after 48 hrs by sulforhodamine B assay; settings: HOP-92, 48 h
KM12 = test: Antiproliferative activity against human KM12 cells assessed as cell viability at 10^-5 M incubated for 48 hrs by sulforhodamine B assay relative to control; settings: KM12, 48 h, read-out: Activity
NCI-H522 = test: Antiproliferative activity against human NCI-H522 cells assessed as cell viability at 10^-5 M incubated for 48 hrs by sulforhodamine B assay relative to control; settings: NCI-H522, 48 h, read-out: Activity
SF-268 = test: Antiproliferative activity against human SF268 cells assessed as cell viability at 10^-5 M incubated for 48 hrs by sulforhodamine B assay relative to control; settings: SF-268, 48 h, read-out: Activity
UACC-257 = test: Antiproliferative activity against human UACC257 cells assessed as cell viability at 10^-5 M incubated for 48 hrs by sulforhodamine B assay relative to control; settings: UACC-257, 48 h, read-out: Activity
SR = test: Antiproliferative activity against human SR cells assessed as cell viability at 10^-5 M incubated for 48 hrs by sulforhodamine B assay relative to control; settings: read-out: Activity
OVCAR-8 = test: Antiproliferative activity against human OVCAR8 cells assessed as cell viability at 10^-5 M incubated for 48 hrs by sulforhodamine B assay relative to control; settings: OVCAR-8, 48 h, read-out: Activity
IGROV-1 = test: Antiproliferative activity against human IGROV1 cells assessed as cell viability at 10^-5 M incubated for 48 hrs by sulforhodamine B assay relative to control; settings: IGROV-1, 48 h, read-out: Activity
HL-60(TB) = test: Antiproliferative activity against human HL-60(TB) cells assessed as cell viability at 10^-5 M incubated for 48 hrs by sulforhodamine B assay relative to control; settings: HL-60, 48 h, read-out: Activity
786-0 = test: Antiproliferative activity against human 786-0 cells assessed as cell viability at 10^-5 M incubated for 48 hrs by sulforhodamine B assay relative to control; settings: 786-0, 48 h, read-out: Activity
Malme-3M = test: Antiproliferative activity against human MALME-3M cells assessed as cell viability at 10^-5 M incubated for 48 hrs by sulforhodamine B assay relative to control; settings: read-out: Activity
NCI-H23 = test: Antiproliferative activity against human NCI-H23 cells assessed as cell viability at 10^-5 M incubated for 48 hrs by sulforhodamine B assay relative to control; settings: NCI-H23, 48 h, read-out: Activity
DU-145 = test: Antiproliferative activity against human DU145 cells assessed as cell viability at 10^-5 M incubated for 48 hrs by sulforhodamine B assay relative to control; settings: DU-145, 48 h, read-out: Activity
UACC-62 = test: Antiproliferative activity against human UACC62 cells assessed as cell viability at 10^-5 M incubated for 48 hrs by sulforhodamine B assay relative to control; settings: UACC-62, 48 h, read-out: Activity
HCT-116 = test: Antiproliferative activity against human HCT116 cells assessed as cell viability at 10^-5 M incubated for 48 hrs by sulforhodamine B assay relative to control; settings: HCT-116, 48 h, read-out: Activity
MDA-MB-468 [2] = test: Antiproliferative activity against human MDA-MB-468 cells assessed as cell viability at 10^-5 M incubated for 48 hrs by sulforhodamine B assay relative to control; settings: MDA-MB-468, 48 h, read-out: Activity
SK-MEL-28 = test: Antiproliferative activity against human SK-MEL-28 cells assessed as cell viability at 10^-5 M incubated for 48 hrs by sulforhodamine B assay relative to control; settings: SK-MEL-28, 48 h, read-out: Activity

SMILES	viability at 10 µM (BT-549)	viability at 10 µM (EKVX)	viability at 10 µM (NCI-H460)	viability at 10 µM (NCI-H226)	viability at 10 µM (SNB-19)	viability at 10 µM (HOP-62)	viability at 10 µM (MDA-MB-231)	viability at 10 µM (RPMI-8226)	viability at 10 µM (HCT-15)	viability at 10 µM (CCRF-CEM)	viability at 10 µM (U-251)	GI50 (MDA-MB-468 [1])	TGI (MDA-MB-468 [1])	CC50 (MDA-MB-468 [1])	GI50 (CAKI-1)	TGI (CAKI-1)	CC50 (CAKI-1)	viability at 10 µM (A549)	GI50 (HOP-92)	TGI (HOP-92)	other results
O=C1NC2C(CC(O)C(O)C2O)c2cc3c(c(O)c21)OCO3 (racemic)	-12.5%	-26.3%	-15.1%	-38.3%	-8.68%	-18.9%	-27.9%	-24.2%	1.81%	2.84%	-10.5%	0.032 µM	0.19 µM	6.59 µM	0.0913 µM	0.69 µM	> 100 µM	-8.4%	0.049 µM	0.57 µM	viability at 10 µM (KM12): -11.5%; viability at 10 µM (NCI-H522): -32.6%; viability at 10 µM (SF-268): -4.43%; viability at 10 µM (UACC-257): -21.8%; viability at 10 µM (SR): 6.14%; viability at 10 µM (OVCAR-8): -7.71%; viability at 10 µM (IGROV-1): -7.85%; viability at 10 µM (HL-60(TB)): -37.8%; viability at 10 µM (786-0): -10.8%; viability at 10 µM (Malme-3M): -48.7%; viability at 10 µM (NCI-H23): -14.9%; viability at 10 µM (DU-145): -19.1%; viability at 10 µM (UACC-62): -48.4%; viability at 10 µM (HCT-116): -1.49%; viability at 10 µM (MDA-MB-468 [2]): -45.8%
O=C1NC2C(CC(O)C(O)C2O)c2cc3c(c(O)c21)OCCO3 (racemic)	-17.5%	-14.3%	1.26%	-11.3%	-10.4%	-26.5%	-24.1%	-28.1%	-11.9%	-6.07%	-14.9%	0.0681 µM	0.36 µM	2.78 µM	0.586 µM	5.47 µM	> 100 µM	-14.3%	0.11 µM	1.01 µM	LC50 (HOP-92): > 100 µM; viability at 10 µM (SK-MEL-28): -16.4%; viability at 10 µM (KM12): -2.6%; viability at 10 µM (NCI-H522): -36.1%; viability at 10 µM (SF-268): -0.71%; viability at 10 µM (UACC-257): -22.2%; viability at 10 µM (SR): -2.37%; viability at 10 µM (OVCAR-8): -13.8%; viability at 10 µM (IGROV-1): -16.7%; viability at 10 µM (HL-60(TB)): -18.8%; viability at 10 µM (786-0): -1.5%; viability at 10 µM (Malme-3M): -23.8%; viability at 10 µM (NCI-H23): -40.9%; viability at 10 µM (DU-145): -2.39%; viability at 10 µM (UACC-62): -13.3%; viability at 10 µM (HCT-116): -3.3%; viability at 10 µM (MDA-MB-468 [2]): -27.2%
